Tested on: rabbit's isolated aorta
Test: KCl-induced contraction of the rabbit's isolated aorta (antispasmodic activity on the smooth muscles)
Assay type: cell-based
Details: Oryctolagus cuniculus, Godfraind method, read-out: ED50 (the source's name)
Source text: The compounds of the present invention are endowed with antispasmodic activity on the smooth muscles with has been established with the test of KCl--induced contraction of the rabbit's isolated aorta according to Godfraind and coll. (Arch. Int. Pharmacodyn., 172, 235, 1968).

Row | IC50 [mg/L] | Compound
1 | 5.2 | COc1ccc(C(O)(CCN(C)CCN(C)Cc2ccccc2)c2ccc(OC)cc2)cc1 [N1,N2-dimethyl-N1-benzyl-N2-(3,3-di-p-methoxyphenyl-3-hydroxypropyl)-ethylenediamine dimaleate]
2 | 1.3 | COc1cc(CN(C)CCN(C)CCC(c2ccccc2)c2ccccc2)cc(OC)c1OC [N1,N2-dimethyl-N1-(3,4,5-trimethoxybenzyl)-N2-(3,3-diphenylpropyl)-ethylenediamine dimaleate]
3 | 2.1 | CN(CC=C(c1ccccc1)c1ccccc1)CCN(C)Cc1ccccc1 [N1,N2-dimethyl-N1-benzyl-N2-(3,3-diphenylallyl)-ethylenediamine dimaleate]
4 | 4.6 | CN(CCC(c1ccccc1)c1ccccc1)CCN(C)Cc1ccccc1 [N1,N2-dimethyl-N1-benzyl-N2-(3,3-diphenylpropyl)-ethylenediamine dimaleate]

Source: patent publication US4381305A, “Ethylenediamine derivatives and pharmaceutical compositions containing same” (Simes S.p.A., priority 1980, dated 1983)
